Test results: US8198317B2, “Methylenedioxy phenolic compounds and their use to treat disease” (The Ohio State University Research Foundation, priority 2008, dated 2012)

How the values were obtained:
[1] = tested on: Watanabe Heritable Hyperlipidemic Rabbits (WHHL); assay: 8-Isoprostane enzyme linked immunoassay in WHHL rabbits; type: in vivo, rabbit; conditions: vs control groups
Procedure: […] […] Both samples underwent affinity purification (Cayman Chemical, Ann Arbor, Mich.) and then measurement of 8-isoprostane with the Stat-8-Isoprostane ELISA kit (Cayman Chemical, Ann Arbor, Mich.). […] The protein levels in liver lysates were determined by BCA Protein Assay (Pierce, Rockford, Ill.).

SREBP-2 = assay: SREBP2 nuclear binding by EMSA in HepG2 cells; type: cell-based, human
Procedure: FIG. 5A is a graph showing in vitro time course of course of Sterol Regulatory and Binding Protein-2 (SREBP2) activity measurement with INV-75. HepG2 cells were stimulated with INV-75 (0.1 mM) for four hours and the binding activity of SREBP2 to nuclear proteins was measured by electrophoretic migration shift assay (EMSA). A total of three experiments were performed. *, p<0.01 by ANOVA compared to vehicle.
FIG. 5B is a graph showing the dose dependent effects of INV-75 on SREBP2 activity. HepG2 cells were stimulated with multiple concentrations of INV-75 for 1 hour and binding activity of SREBP2 in nuclear proteins was measured by electrophoretic migration shift assay (EMSA). A total of three experiments were performed. *, p<0.01 by ANOVA compared to vehicle.
A family of transcription factors designated SREBP (sterol regulatory element binding proteins) regulate synthesis of cholesterol and fatty acids. Of these, SREBP-2 mainly regulates cholesterol biosynthesis by alteration of cholesterol synthesis enzymes and LDL receptor expression (SREBP-1c mainly regulates fatty acid synthesis). […] The time course with this dose and dose dependence was analyzed. Next we assessed the expression of both precursor and mature form of SREBP-2 in the cytoplasm by western analysis. Both time course and dose dependence of mature form of SREBP-2 was analyzed.

[2] = tested on: New Zealand White rabbits; assay: MRI assessment of atherosclerosis in balloon denuded NZW rabbits; type: in vivo, rabbit
Procedure: Animal Model: 15 male New Zealand White rabbits (Charles River, Mass.) were fed with high fat diet (HFD) (Harlan Teklad rabbit diet with 0.5% cholesterol, TD 87251). After 4 weeks of high fat diet, rabbits were randomized into three different treatment groups, normal control (n=5), lipoic acid (100 mg/kg/day) (n=5), INV 70-65 (100 mg/kg/day) (n=5). These drugs were administered to the animals via their chow by mixing the drugs with the high fat diet. A fixed amount of chow and drugs admixed in the chow were fed to all animals every day after carefully calculating food intake in each rabbit. Drugs were dissolved in 100% ethanol and sprayed onto the diet and kept under vacuum to let ethanol evaporate overnight. Two (2) weeks after drug or control admixed HFD, all rabbits underwent aortic balloon denudation surgeries followed by 12 weeks of continued administration of drug or controls admixed with HFD. FIG. 29 provides an outline of the experimental design.
MRI experiments were conducted at two time points: 1 week and 12 weeks after the balloon denudation procedure (FIG. 29). […] MR images were analyzed using a Siemens Leonardo Workstation (Siemens Healthcare Inc. Germany).
To assess the different rates of atherosclerosis plaque progression for each rabbit group, the aortic wall was identified in the pre-contrast images at both MRI time points. […] To account for the variable number of slices, for each rabbit a normalized aortic wall volume was calculated.
To assess plaque neovasculature progression in the different treatment groups, only the 12 weeks post balloon denudation MR images were used. […] The signal to noise ratio (SNR) for each slice was calculated as the mean signal obtained from the vessel wall divided by the standard deviation of the noise from a region outside the body. A ratio of the SNR enhancement for each rabbit was obtained by dividing the post and pre contrast calculated SNRs.

Compound	8-Isoprostane production in aortic homogenates [1]	8-Isoprostane production in plasma [1]	time to increased nuclear binding of SREBP-2 (SREBP-2; HepG2, 0.1 mM) [h]	dose effective in inducing translocation of SREBP-2 to the nucleus (SREBP-2; HepG2, 1 hour) [nM]	gadolinium enhancement of the aorta ([2]; compared to controls and lipoic acid treatment)	plaque burden by MRI ([2]; high fat diet, 100 mg/kg/day, 12 weeks)
CC(=O)Oc1cc2c(cc1[N+](=O)[O-])OCO2 [INV-75, 3,4-methylenedioxy-6-nitrophenyl acetate]	significantly lower	significantly lower	< 1	≥ 100	–	–
O=C(CCCCC1CCSS1)Oc1ccc2c(c1)OCO2 (stereo not drawn) [INV-7065, 3,4-Methylenedioxy phenyl lipoate]	–	–	–	–	reduction	marked attenuation
